Source: ChEMBL document CHEMBL4622972 (J Med Chem, 2020)

How the values were obtained:
[1] = 1-octanol-aqueous buffer distribution coefficient, log D of the compound at pH 7.4; type: physicochemical
[2] = Apparent permeability across apical to basolateral side in human Caco2 cells at pH 7.4; type: ADME, cell-based; conditions: Caco-2, pH 7.4
[3] = Apparent permeability across basolateral to apical side in human Caco2 cells at pH 7.4; type: ADME, cell-based; conditions: Caco-2, pH 7.4
[4] = Oral bioavailability in dog; type: ADME, organism-based, Canis lupus familiaris; conditions: in vivo
[5] = Apparent permeability in human jejunum; type: ADME, tissue-based
[6] = Volume of distribution at steady state in iv dosed dog; type: ADME, organism-based, Canis lupus familiaris; conditions: in vivo, read-out: Vdss
[7] = Oral bioavailability in Harlan-Han Wistar rat; type: ADME, organism-based; conditions: in vivo
[8] = Volume of distribution at steady state in iv dosed Harlan-Han Wistar rat; type: ADME, organism-based; conditions: in vivo, read-out: Vdss
[9] = Apparent permeability in rat jejunum; type: ADME, tissue-based
[10] = Drug absorption in po dosed rat; type: ADME, organism-based; conditions: in vivo
[11] = Drug absorption in po dosed mouse; type: ADME, organism-based; conditions: in vivo
[12] = Drug absorption in po dosed hamster; type: ADME, organism-based; conditions: cricetinae, in vivo

Row | logD [1] | Papp A→B [2] | further results | Compound
1 | 0.7 |  |  | Cc1ccc2[nH]c(C(=O)N[C@H]3CN(S(=O)(=O)c4ccnnc4)C[C@@H]3C(=O)NCCN(C)C)cc2c1
2 | 2.3 | 0.24 ×10⁻⁶ cm/s | Papp B→A [3]: 19.3 ×10⁻⁶ cm/s | Cc1ccc2[nH]c(C(=O)N[C@H]3CN(S(=O)(=O)c4ccccc4)C[C@@H]3C(=O)NC[C@@H]3CCCN3C)cc2c1
3 | 1.7 |  |  | Cc1ccc2[nH]c(C(=O)N[C@H]3CN(S(=O)(=O)c4ccnc(C)c4)C[C@@H]3C(=O)NCCN(C)C)cc2c1
4 | 1 |  |  | Cc1ccc2[nH]c(C(=O)N[C@H]3CN(S(=O)(=O)c4cnccn4)C[C@@H]3C(=O)NCCN(C)C)cc2c1
5 | 2.3 |  |  | Cc1ccc2[nH]c(C(=O)N[C@H]3CCN(S(=O)(=O)N4CCCCC4)C[C@@H]3C(=O)NCCN(C)C)cc2c1
6 | 2.1 |  |  | Cc1ccc2[nH]c(C(=O)N[C@H]3CN(S(=O)(=O)c4ccccc4)C[C@@H]3C(=O)NCCN(C)C)cc2c1
7 | 1.9 | < 0.01 ×10⁻⁶ cm/s | Papp B→A [3]: 1.4 ×10⁻⁶ cm/s | Cc1ccc2[nH]c(C(=O)N[C@H]3CCN(S(=O)(=O)c4ccccc4Cl)C[C@@H]3C(=O)N[C@H]3CCCNC3)cc2c1
8 | 1.9 | 0.31 ×10⁻⁶ cm/s | bioavailability [4]: 40%; Papp [5]: < 1 ×10⁻⁶ cm/s; Vd [6]: 6.6 L/kg; bioavailability [7]: < 1%; Vd [8]: 5.5 L/kg; Papp [9]: < 1 ×10⁻⁶ cm/s; Drug absorption [10]: Not Active; Drug absorption [11]: Not Active; Drug absorption [12]: Not Active | O=C(N[C@H]1CN(S(=O)(=O)c2ccccc2)C[C@@H]1C(=O)N[C@H]1CCCNC1)c1cc(-c2ccccc2Cl)on1
9 | 2.7 | 0.3 ×10⁻⁶ cm/s | Papp B→A [3]: 16.3 ×10⁻⁶ cm/s | Cc1ccc2[nH]c(C(=O)N[C@H]3CN(S(=O)(=O)c4ccccc4)C[C@@H]3C(=O)N[C@H]3CCCN(C)C3)cc2c1
10 | 2.4 |  |  | Cc1ccc2[nH]c(C(=O)N[C@H]3Cc4ccccc4[C@@H]3C(=O)NCCN(C)C)cc2c1
11 | 1 |  |  | Cc1ccc2[nH]c(C(=O)N[C@H]3CN(S(=O)(=O)C4CCOCC4)C[C@@H]3C(=O)NCCN(C)C)cc2c1
12 | 2.7 | 0.76 ×10⁻⁶ cm/s | Papp B→A [3]: 22.8 ×10⁻⁶ cm/s | Cc1ccc2[nH]c(C(=O)N[C@H]3CN(S(=O)(=O)c4ccccc4)C[C@@H]3C(=O)N[C@@H]3CCCN(C)C3)cc2c1
13 | 1.2 |  |  | Cc1ccc2[nH]c(C(=O)N[C@H]3CCN(S(=O)(=O)N(C)C)C[C@@H]3C(=O)NCCN(C)C)cc2c1
14 | 3.1 | 0.27 ×10⁻⁶ cm/s | Papp B→A [3]: 15.9 ×10⁻⁶ cm/s | Cc1ccc2[nH]c(C(=O)N[C@H]3CCN(S(=O)(=O)c4ccccc4Cl)C[C@@H]3C(=O)N[C@H]3CCCN(C)C3)cc2c1
15 | 1.4 |  |  | Cc1ccc2[nH]c(C(=O)N[C@H]3CN(S(=O)(=O)c4cccnc4)C[C@@H]3C(=O)NCCN(C)C)cc2c1
16 | 1.4 |  |  | Cc1ccc2[nH]c(C(=O)N[C@H]3CN(S(=O)(=O)c4cn(C)nc4C)C[C@@H]3C(=O)NCCN(C)C)cc2c1

Row | logD [1] | Papp A→B [2] | further results | Compound
17 | 2.3 | 0.08 ×10⁻⁶ cm/s | Papp B→A [3]: 2.7 ×10⁻⁶ cm/s | Cc1ccc2[nH]c(C(=O)N[C@H]3CN(S(=O)(=O)c4ccccc4)C[C@@H]3C(=O)NC[C@H]3CCCN3C)cc2c1
18 | 1 | 0.11 ×10⁻⁶ cm/s | Papp B→A [3]: 15.9 ×10⁻⁶ cm/s | Cc1ccc2[nH]c(C(=O)N[C@H]3CN(S(=O)(=O)c4ccccc4)C[C@@H]3C(=O)NC[C@H]3CCCN3)cc2c1
19 | 0.1 | 0.18 ×10⁻⁶ cm/s |  | Cc1csc(C(=O)N[C@H]2CN(S(=O)(=O)c3ccccc3)C[C@@H]2C(=O)N[C@H]2CCCNC2)n1
20 | 2.2 to 2.3 |  |  | Cc1ccc2[nH]c(C(=O)N[C@H]3CCN(S(=O)(=O)c4ccccc4)C[C@@H]3C(=O)NCCN(C)C)cc2c1
21 | 1.3 | 0.04 ×10⁻⁶ cm/s | Papp B→A [3]: 2 ×10⁻⁶ cm/s | Cc1ccc2[nH]c(C(=O)N[C@H]3CN(S(=O)(=O)c4ccccc4)C[C@@H]3C(=O)N[C@H]3CCCNC3)cc2c1
22 | 2.3 |  |  | Cc1ccc2[nH]c(C(=O)N[C@@H]3CCN(S(=O)(=O)c4ccccc4)C[C@H]3C(=O)NCCN(C)C)cc2c1
23 | 2.1 |  |  | Cc1ccc2[nH]c(C(=O)N[C@@H]3CN(S(=O)(=O)c4ccccc4)C[C@H]3C(=O)NCCN(C)C)cc2c1
24 | 1.3 | 0.04 ×10⁻⁶ cm/s | Papp B→A [3]: 1.6 ×10⁻⁶ cm/s | Cc1ccc2[nH]c(C(=O)N[C@H]3CN(S(=O)(=O)c4ccccc4)C[C@@H]3C(=O)N[C@@H]3CCCNC3)cc2c1
25 | 1 |  |  | Cc1ccc2[nH]c(C(=O)N[C@H]3CCN(S(=O)(=O)C4CC4)C[C@@H]3C(=O)NCCN(C)C)cc2c1
26 | 1 |  |  | Cc1ccc2[nH]c(C(=O)N[C@H]3CCN(S(=O)(=O)N4CCOCC4)C[C@@H]3C(=O)NCCN(C)C)cc2c1 (racemic)
27 | 1.3 |  |  | Cc1ccc2[nH]c(C(=O)N[C@H]3CCN(S(=O)(=O)c4cccnc4)C[C@@H]3C(=O)NCCN(C)C)cc2c1 (racemic)
28 | 0.7 |  |  | Cc1ccc2[nH]c(C(=O)N[C@H]3CCN(C(=O)c4cccnc4)C[C@@H]3C(=O)NCCN(C)C)cc2c1 (racemic)
29 | 2.3 |  |  | Cc1ccc2[nH]c(C(=O)N[C@H]3CN(S(=O)(=O)c4ccccc4)C[C@H]3C(=O)NCCN(C)C)cc2c1 (racemic)
30 | 1.9 |  |  | Cc1ccc2[nH]c(C(=O)N[C@H]3CN(S(=O)(=O)c4ccccc4)CC[C@H]3C(=O)NCCN(C)C)cc2c1 (racemic)
31 | 2.1 |  |  | Cc1ccc2[nH]c(C(=O)N[C@@H]3CCN(S(=O)(=O)c4ccccc4)C[C@@H]3C(=O)NCCN(C)C)cc2c1 (racemic)
32 | 1.9 |  |  | Cc1ccc2[nH]c(C(=O)N[C@H]3CN(S(=O)(=O)c4ccccc4)CC[C@@H]3C(=O)NCCN(C)C)cc2c1 (racemic)
